Assay [1] in a line: Antiproliferative activity against human EFM-192A cells assessed as reduction in cell growth measured for 24 hrs by MTT assay. The assay is classed as functional, cell-based. Background: Formazan colour is commonly taken as a measure of viable cells.
In the next assay the test system is MCF7. Description: Antiproliferative activity against human MCF7 cells assessed as reduction in cell viability by MTT assay. The assay is classed as functional, cell-based.
For assay [2], the target named is Phosphatidylinositol 4,5-bisphosphate 3-kinase catalytic subunit alpha isoform (Homo sapiens, UniProt P42336). Description: Inhibition of PI3Kalpha (unknown origin).
Phosphatidylinositol 4,5-bisphosphate 3-kinase catalytic subunit alpha isoform, sequence (P42336 whole entry, canonical isoform): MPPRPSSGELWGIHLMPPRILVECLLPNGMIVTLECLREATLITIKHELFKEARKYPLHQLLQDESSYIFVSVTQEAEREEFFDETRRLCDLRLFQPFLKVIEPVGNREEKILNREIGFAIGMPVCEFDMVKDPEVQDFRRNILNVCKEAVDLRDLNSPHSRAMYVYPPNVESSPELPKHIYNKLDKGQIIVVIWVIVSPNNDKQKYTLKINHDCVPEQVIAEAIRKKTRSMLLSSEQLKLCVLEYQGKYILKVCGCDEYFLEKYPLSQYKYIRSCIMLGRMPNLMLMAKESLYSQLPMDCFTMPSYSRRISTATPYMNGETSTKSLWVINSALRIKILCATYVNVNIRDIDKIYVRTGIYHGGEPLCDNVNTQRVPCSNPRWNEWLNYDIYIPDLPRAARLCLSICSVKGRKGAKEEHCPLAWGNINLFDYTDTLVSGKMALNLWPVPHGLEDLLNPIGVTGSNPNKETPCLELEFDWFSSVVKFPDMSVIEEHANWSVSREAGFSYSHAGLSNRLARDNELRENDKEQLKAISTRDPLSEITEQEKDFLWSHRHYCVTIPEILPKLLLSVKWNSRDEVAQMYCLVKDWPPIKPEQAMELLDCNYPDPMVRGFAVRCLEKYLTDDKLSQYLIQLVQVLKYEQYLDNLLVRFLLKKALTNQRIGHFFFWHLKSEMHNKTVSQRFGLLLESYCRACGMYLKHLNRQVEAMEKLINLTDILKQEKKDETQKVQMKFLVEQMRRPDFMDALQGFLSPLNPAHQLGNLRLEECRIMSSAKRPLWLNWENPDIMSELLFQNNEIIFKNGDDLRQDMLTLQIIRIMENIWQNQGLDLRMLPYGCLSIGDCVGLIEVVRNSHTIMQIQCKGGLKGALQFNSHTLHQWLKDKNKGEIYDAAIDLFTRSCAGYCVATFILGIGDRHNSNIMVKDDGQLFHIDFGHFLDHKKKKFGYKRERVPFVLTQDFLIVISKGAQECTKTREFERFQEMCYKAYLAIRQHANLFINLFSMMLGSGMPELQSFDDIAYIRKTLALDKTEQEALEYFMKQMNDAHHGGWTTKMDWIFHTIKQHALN
For a further assay, the system named is MDA-MB-231. The assay can be described thus: Antiproliferative activity against human MDA-MB-231 cells assessed as reduction in cell viability by MTT assay. The assay is classed as functional, cell-based.
For assay [3], the target named is Serine/threonine-protein kinase mTOR (Homo sapiens, UniProt P42345). Description: Inhibition of mTOR (unknown origin).
The nature of assay [4]: Growth inhibition of human Triple-negative breast cancer cell incubated for 24 hrs by MTT assay. The assay is classed as functional.

Structures are written as SMILES.

As usually defined, the IC50 is the concentration at which inhibition is half-maximal. Take `COc1ccc(CCc2cc(OC)c(OC)c(OC)c2)cc1O`: in assay [1], the IC50 amounted to 78.6 nM.
In the case of `CS(=O)(=O)N1CCN(Cc2ccc(-c3nc(-c4ccc(NC(=O)Nc5cccnc5)cc4)nc(N4CCOCC4)n3)s2)CC1`, the IC50 in the assay on MCF7 was found to be 2 nM; in assay [2] it was 291 nM; with MDA-MB-231, 2 nM; in assay [3], 60.8 nM.
One may read the GI50 as the concentration at which growth is held to half of that of the control. Consider `N#Cc1ccc(CN2C(=O)c3cc4ccccc4n3C[C@H]2C(=O)NCc2ccccc2)cc1`, for which the GI50 in assay [4] was determined as 2960 nM.

The record behind these values is ChEMBL document CHEMBL6092127, “Recent advancement in developing small molecular inhibitors targeting key kinase pathways against triple-negative breast cancer” (Bioorg Med Chem, 2024).
